We go through 10 molecules from the Kinase Knowledgebase extract (Sharma et al. 2016).

pIC50: −log10 of the molar value.

For assay [1], the target named is PIK3CA (human) (UniProt P42336). Put plainly: Assessment of PIK3CA Kinase Activity.
In assay [2] the target is PIK3CD (Human) (UniProt O00329). Put plainly: Assessment of PIK3CD Kinase Activity.
Assay [3] has as its target PIK3CG (human) (UniProt P48736). Put plainly: Assessment of PIK3CG Kinase Activity.

Sequence of PIK3CA (human) (P42336 whole entry, looked up): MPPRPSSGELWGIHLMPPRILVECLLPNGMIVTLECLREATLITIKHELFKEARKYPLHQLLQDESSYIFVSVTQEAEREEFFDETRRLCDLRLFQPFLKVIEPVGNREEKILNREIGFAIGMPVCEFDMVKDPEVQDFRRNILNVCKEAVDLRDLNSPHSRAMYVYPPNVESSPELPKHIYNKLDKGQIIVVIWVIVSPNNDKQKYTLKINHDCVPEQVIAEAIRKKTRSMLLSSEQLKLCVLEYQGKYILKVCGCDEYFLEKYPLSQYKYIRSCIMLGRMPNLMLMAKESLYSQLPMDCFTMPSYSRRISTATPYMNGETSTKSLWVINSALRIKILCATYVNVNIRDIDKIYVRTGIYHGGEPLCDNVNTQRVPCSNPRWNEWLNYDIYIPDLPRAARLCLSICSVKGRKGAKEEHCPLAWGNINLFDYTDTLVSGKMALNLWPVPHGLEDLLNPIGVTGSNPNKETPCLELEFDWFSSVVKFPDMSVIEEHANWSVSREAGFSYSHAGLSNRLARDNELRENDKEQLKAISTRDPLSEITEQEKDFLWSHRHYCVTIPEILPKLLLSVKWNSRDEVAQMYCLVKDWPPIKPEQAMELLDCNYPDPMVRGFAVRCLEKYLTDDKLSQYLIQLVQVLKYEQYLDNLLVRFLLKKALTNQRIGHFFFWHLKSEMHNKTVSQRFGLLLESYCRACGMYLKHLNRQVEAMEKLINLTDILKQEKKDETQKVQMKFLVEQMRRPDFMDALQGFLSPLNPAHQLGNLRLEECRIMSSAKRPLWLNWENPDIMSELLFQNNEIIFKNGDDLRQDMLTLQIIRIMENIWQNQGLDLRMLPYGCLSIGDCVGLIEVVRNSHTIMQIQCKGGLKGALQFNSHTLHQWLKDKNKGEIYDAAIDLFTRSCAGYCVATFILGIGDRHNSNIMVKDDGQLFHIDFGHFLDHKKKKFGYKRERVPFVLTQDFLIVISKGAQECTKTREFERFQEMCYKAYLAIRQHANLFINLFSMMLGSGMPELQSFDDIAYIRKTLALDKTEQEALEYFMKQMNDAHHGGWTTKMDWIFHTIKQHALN
Sequence of PIK3CD (Human) (O00329 whole entry, looked up): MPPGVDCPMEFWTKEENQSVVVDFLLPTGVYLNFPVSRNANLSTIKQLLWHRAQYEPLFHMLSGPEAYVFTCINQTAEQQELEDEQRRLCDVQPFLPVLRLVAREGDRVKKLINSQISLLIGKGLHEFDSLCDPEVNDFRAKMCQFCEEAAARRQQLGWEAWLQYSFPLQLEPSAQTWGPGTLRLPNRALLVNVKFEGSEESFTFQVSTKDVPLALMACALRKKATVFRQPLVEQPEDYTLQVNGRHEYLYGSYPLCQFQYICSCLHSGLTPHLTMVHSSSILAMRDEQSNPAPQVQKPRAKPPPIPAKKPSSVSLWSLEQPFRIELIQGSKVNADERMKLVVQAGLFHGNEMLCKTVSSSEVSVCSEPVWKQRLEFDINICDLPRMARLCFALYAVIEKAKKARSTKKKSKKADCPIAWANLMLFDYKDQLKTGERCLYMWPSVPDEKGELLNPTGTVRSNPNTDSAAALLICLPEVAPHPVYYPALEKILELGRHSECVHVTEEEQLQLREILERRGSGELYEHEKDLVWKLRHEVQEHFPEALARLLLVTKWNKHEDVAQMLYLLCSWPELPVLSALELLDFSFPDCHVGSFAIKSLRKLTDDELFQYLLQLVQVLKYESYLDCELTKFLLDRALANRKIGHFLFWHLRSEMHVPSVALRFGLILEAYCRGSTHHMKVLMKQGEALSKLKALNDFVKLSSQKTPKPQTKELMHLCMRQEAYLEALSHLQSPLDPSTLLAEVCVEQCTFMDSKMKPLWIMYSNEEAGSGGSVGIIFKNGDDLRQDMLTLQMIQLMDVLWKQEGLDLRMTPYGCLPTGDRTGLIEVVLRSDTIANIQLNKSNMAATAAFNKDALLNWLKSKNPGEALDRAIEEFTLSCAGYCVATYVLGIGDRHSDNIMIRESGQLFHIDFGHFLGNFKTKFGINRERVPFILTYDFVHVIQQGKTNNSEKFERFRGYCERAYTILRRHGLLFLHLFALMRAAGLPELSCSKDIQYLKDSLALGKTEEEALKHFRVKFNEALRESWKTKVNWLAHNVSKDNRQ
Sequence of PIK3CG (human) (P48736 whole entry, looked up): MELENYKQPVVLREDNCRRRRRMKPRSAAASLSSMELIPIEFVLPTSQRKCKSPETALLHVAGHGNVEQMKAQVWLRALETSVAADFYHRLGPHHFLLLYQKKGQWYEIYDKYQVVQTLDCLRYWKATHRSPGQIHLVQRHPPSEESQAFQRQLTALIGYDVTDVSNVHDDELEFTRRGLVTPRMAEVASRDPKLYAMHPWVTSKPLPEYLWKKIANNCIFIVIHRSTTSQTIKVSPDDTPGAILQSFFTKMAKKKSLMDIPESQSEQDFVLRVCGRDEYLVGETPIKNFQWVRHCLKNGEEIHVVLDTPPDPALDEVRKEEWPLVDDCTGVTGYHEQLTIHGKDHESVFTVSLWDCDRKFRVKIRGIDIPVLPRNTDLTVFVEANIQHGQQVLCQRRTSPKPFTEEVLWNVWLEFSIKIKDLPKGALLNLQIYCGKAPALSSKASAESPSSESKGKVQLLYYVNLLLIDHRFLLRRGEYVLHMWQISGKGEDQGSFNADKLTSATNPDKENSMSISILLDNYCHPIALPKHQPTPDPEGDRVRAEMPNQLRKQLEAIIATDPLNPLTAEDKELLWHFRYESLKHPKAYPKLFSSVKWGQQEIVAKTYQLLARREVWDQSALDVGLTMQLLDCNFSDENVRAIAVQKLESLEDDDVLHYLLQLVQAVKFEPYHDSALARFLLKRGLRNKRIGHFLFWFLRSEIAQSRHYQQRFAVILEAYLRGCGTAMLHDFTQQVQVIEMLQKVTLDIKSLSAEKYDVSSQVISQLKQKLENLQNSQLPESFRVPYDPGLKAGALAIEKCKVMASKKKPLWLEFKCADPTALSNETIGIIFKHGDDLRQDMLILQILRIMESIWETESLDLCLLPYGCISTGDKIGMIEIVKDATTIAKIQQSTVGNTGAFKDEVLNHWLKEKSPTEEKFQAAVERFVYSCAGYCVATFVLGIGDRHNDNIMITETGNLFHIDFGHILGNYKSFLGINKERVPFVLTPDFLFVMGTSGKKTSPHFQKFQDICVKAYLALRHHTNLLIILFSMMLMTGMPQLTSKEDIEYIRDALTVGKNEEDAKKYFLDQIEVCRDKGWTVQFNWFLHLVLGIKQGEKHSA

For `Cc1nc(NC(=O)NCC(=O)N(C)C)sc1-c1ccc(S(C)(=O)=O)c(F)c1`, the pIC50 – broadly, the negative decadic logarithm of the IC50, by convention in mol/L – in assay [1] is 8.05; in assay [2] it was 7.55; in assay [3] it was 7.92.
The corresponding values for `CCn1cnc(CCNC(=O)Nc2nc(C)c(-c3ccc(S(C)(=O)=O)c(F)c3)s2)c1` are 6.03, 5.67 and 7.42.
The corresponding values for `Cc1nc(NC(=O)NCCO)sc1-c1ccc(S(C)(=O)=O)c(C(F)(F)F)c1` are 7.46, 6.74 and 7.33.
The corresponding values for `Cc1nc(NC(=O)NCCC(=O)OC(C)(C)C)sc1-c1ccc(S(C)(=O)=O)c(F)c1` are 5.52, 6.20 and 7.80.
Regarding `Cc1nc(NC(=O)NCCc2cn(C(C)C)cn2)sc1-c1ccc(S(C)(=O)=O)c(F)c1`, the negative logarithm of the IC50 (pIC50) is 5.82 in assay [1], 6.38 in assay [2] and 7.36 in assay [3].
Turning to `Cc1nc(NC(=O)NCCS(C)(=O)=O)sc1-c1ccc(F)c(S(C)(=O)=O)c1`, the pIC50 in assay [1] is 6.66; in assay [2] it was 6.20; in assay [3], 6.75.
The corresponding values for `CCc1nnc(CCNC(=O)Nc2nc(C)c(-c3ccc(S(C)(=O)=O)c(F)c3)s2)o1` are 6.08, 5.42 and 7.13.
For the molecule `Cc1nc(NC(=O)N2CC(C#N)C2)sc1-c1ccc(S(C)(=O)=O)c(F)c1`, the pIC50 in assay [1] was 6.72; in assay [3], 6.71.
`Cc1nc(NC(=O)NCCC(=O)OC(C)(C)C)sc1-c1ccc(S(C)(=O)=O)c(C(F)(F)F)c1`: the values for the pIC50 in assay [1], in assay [2] and in assay [3] were 5.69, 5.58 and 6.67, respectively.
The matching figures for `CCc1cnc(CCNC(=O)Nc2nc(C)c(-c3ccc(S(C)(=O)=O)c(-n4ccnc4)c3)s2)o1`: 6.81, 6.77 and 7.49.
